Experimental data published in PubChem BioAssay AID2305 (GlaxoSmithKline (GSK), 2010).
Where “and” joins values, the source holds several entries; their conditions need not be identical. Equal values may be shown once.

Test system: P. falciparum 3D7 growth, pLDH absorbance
Assay: blood-stage malaria parasite growth potency – strain 3D7, dose response (AID 2305)

Row | SMILES | IC50
1 | C#CCOc1ccccc1CN1CCC(N2CCc3cc(NC(=O)c4cc(C)on4)ccc32)C1 (centres undefined) | 680 nM
2 | O=C(Nc1ccc(F)c(F)c1)c1ccc(CN2CCCN(Cc3cccc(F)c3)CC2)cc1 | 1120 nM
3 | O=C(NCC1CCN(Cc2ccc3c(c2)OCCO3)C1)c1cc(-c2ccccc2F)cs1 (centres undefined) | 1020 nM
4 | Cc1[nH]c(C)c(-c2ccc(OCCn3cnc(Cl)c3Cl)cc2)c(=O)c1Br | 850 nM
5 | N#Cc1cccc(-c2nc(NCc3cccc(C(F)(F)F)c3)nn2-c2cccc(C(F)(F)F)c2)c1 | 590 nM
6 | O=C(/C=C/c1ccccc1O)NC1CCC(CN2CCC(c3c[nH]c4ccccc34)CC2)CC1 (centres undefined) | 760 nM and 460 nM
7 | Cc1cc(=O)c(-c2ccc(S(=O)(=O)c3ccc(Cl)cc3)cc2)c(C)[nH]1 | 880 nM
8 | CCN1CCC(N(CCCCCCc2ccc(C(F)(F)F)cc2)C(=O)Cn2c(CCc3cccc(F)c3F)cc(=O)c3ccccc32)CC1 | 930 nM
9 | Cc1cc2nc(-c3cc(Br)ccc3O)c(-c3cc(Br)ccc3O)nc2cc1C | 850 nM
10 | O=C(Nc1cccc(F)c1)N(Cc1ccc(-c2cccc(CN3CCNCC3)c2)cc1)C1CCN(Cc2ccccc2)CC1 | 760 nM
11 | O=S(=O)(Nc1ccc2nccc(N3CCNCC3)c2c1)c1ccc2oc3ccccc3c2c1 | 690 nM
12 | COc1cc(CNC[C@@H](O)[C@H](Cc2ccccc2)NC(=O)c2cc(C3CCCC3)cc(N3CCCCS3(=O)=O)c2)cc(OC)c1 | 700 nM
13 | Nc1nccc2ccc(-c3cccc4ncccc34)cc12 | 50 nM
14 | COc1ccc2nccc([C@@H](O)CN3CCC(NCCOc4cc(C(F)(F)F)ccc4F)CC3)c2c1 | 110 nM
15 | CCCCNCc1cc(Cl)c2ccccc2c1O | 460 nM
16 | FC(F)(F)c1ccc2nc(-c3ccc(-c4ccc(CN5CCN(c6cnccn6)CC5)cc4)cc3)[nH]c2c1 | 690 nM
17 | Cc1ccc(F)c(OCC2CCN(c3ncc(C(=O)NC4CC4)cc3Cl)CC2)c1 | 900 nM
18 | O=C(CCC1CCCCC1=O)c1ccccc1 (centres undefined) | 770 nM
19 | CN1CCN(CCCNCc2ccc(Nc3nccc(Nc4ccc(Oc5ccccc5)cc4)n3)cc2)CC1 | 630 nM
20 | COc1ccc(-c2cnc(N)nc2N)cc1Cl | 1400 nM
21 | C#CCCC(=O)Nc1cccc(-c2cccc(-c3nc4c(C)cccc4[nH]3)c2)c1 | 740 nM
22 | Fc1ccc(-c2cc(NCCCn3ccnc3)nc(-c3cccnc3)n2)cc1 | 970 nM
23 | CCn1c(CN2CCC(C)CC2)nc2cc(NC(=O)c3cccs3)ccc21 | 560 nM
24 | CNCCNCc1cccc(-c2ccc(-c3nc4ccc(C(F)(F)F)cc4[nH]3)cc2)c1 | 690 nM
25 | CCC(c1ccccc1)c1nn2c(-c3cccs3)nnc2s1 (centres undefined) | 170 nM

Row | SMILES | IC50
26 | N#Cc1ccc(-c2ccc(C(=O)NC3CCN(CCN4CCc5c(cccc5C(F)(F)F)C4)CC3)cc2)cc1 | 700 nM
27 | FC(F)(F)c1ccc(CNCC2CCN(Cc3ccc4c(c3)OCO4)CC2)cc1 | 1360 nM
28 | O=C(NCCCCCN1CCC(c2c[nH]c3ccccc23)CC1)Nc1ccc(Cl)cc1Cl | 720 nM
29 | CC(CCc1ccccc1)NCC(O)c1cccc([N+](=O)[O-])c1 (centres undefined) | 860 nM
30 | COc1ccc(N2CCN(C(CNC(=O)C3CCCCC3)c3ccc4c(c3)OCO4)CC2)cc1 (centres undefined) | 570 nM
31 | O=C(NCc1cccc2ccccc12)[C@@H]1CCCN1C(=O)c1ccc(O)c(-c2ccc(Cl)c(Cl)c2)c1 | 950 nM
32 | Cc1ccc(-c2cc(C(=O)Nc3ccc(S(=O)(=O)N4CCCCC4C)cc3)[nH]n2)c(O)c1 (centres undefined) | 1080 nM
33 | CCCc1cc(Cc2cnc(N)nc2N)cc(OCCCCCC(=O)O)c1OC | 160 nM
34 | COc1ccc(CNC2CCN(C)CC2)cc1-c1ccc(S(=O)(=O)NCc2ccccc2)c(F)c1 | 800 nM
35 | CC(C)C[C@@H](/C=N/N1CCOC1=O)NC(=O)[C@H](CC(C)C)NC(=O)c1ccc(F)cc1 | 1170 nM
36 | COc1cc(Nc2ncnc3cc(OC)c(OC)cc23)cc([N+](=O)[O-])c1 | 810 nM
37 | CC(C)C1C(O)=C(c2ccc3ccccc3c2)C(=O)N1Cc1cccc(F)c1 (centres undefined) | 810 nM
38 | CN(C)c1ccc2nc(N)nc(N)c2c1Cl | 470 nM
39 | Oc1ccc(CN2CCC(NCc3cccc(C(F)(F)F)c3)CC2)cc1 | 680 nM
40 | Nc1ccn([C@@H]2O[C@H](COC(c3ccccc3)(c3ccccc3)c3ccccc3)[C@@H](O)[C@@H]2O)c(=O)n1 | 830 nM
41 | CCCn1c(SCC(=O)Nc2cc(Cl)ccc2Cl)n[nH]c1=O | 1000 nM
42 | Cc1cc(NN=Cc2ccccc2Cl)c2ccc(F)cc2n1 | 260 nM
43 | C#CCNCc1ccc(-c2ccc(-c3nc4ccc(C(F)(F)F)cc4[nH]3)s2)cc1 | 740 nM
44 | Cc1ccccc1N1CCN(c2ccc(C(=O)Nc3ccccc3)cc2)CC1 | 720 nM
45 | CC(=O)N(Cc1ccc(CC(C)NCCc2cccc(Cl)c2)cc1)Cc1ccc(CC(C)NCCc2cccc(Cl)c2)cc1 (centres undefined) | 780 nM
46 | COc1cc2nc(Nc3ccc4c(ccn4Cc4ccccc4)c3)nc(Nc3ccc4c(ccn4Cc4ccccc4)c3)c2cc1OC | 650 nM
47 | CC(CN1CCN(C)CC1)C(=O)Nc1cccc(-c2ccc(-c3nc4ccccc4[nH]3)s2)c1 (centres undefined) | 630 nM
48 | Cc1ccc(CNC(=O)c2cc3c(=O)n4cccc(C)c4nc3n(CCN3CCOCC3)c2=N)cc1 | 850 nM
49 | Cc1[nH]nc2cc(Nc3ccnc(Nc4cccc(CN5CCOCC5)c4)n3)ccc12 | 1580 nM
50 | CCCCCCCNc1cc(C)nc2ccc(OC)cc12 | 670 nM

Row | SMILES | IC50
51 | COc1cc(F)c2nccc([C@@H](O)CN3CC[C@H](NCc4ccc5c(n4)NC(=O)CS5)[C@H](F)C3)c2c1 | 1170 nM
52 | Cc1ccc(C(=O)Nc2cc(C(F)(F)F)cc(C(F)(F)F)c2)cc1[N+](=O)[O-] | 930 nM
53 | CC[C@H]1CN2CC[C@H]1C[C@H]2[C@H](O)c1cc(N2CCC3CCCCC3C2)nc2ccc(OC)cc12 (some centres undefined) | 170 nM
54 | Cc1nc(-c2cccc(NC(C)C(=O)Nc3cc(C(F)(F)F)ccc3N3CCOCC3)c2)cs1 (centres undefined) | 240 nM
55 | COc1cccc(C=NNc2cc(C)nc3c(OC)cccc23)c1 | 580 nM
56 | COc1c(C2CCN(CCCCNC(=O)c3cc(-c4ccc(C#N)cc4)n[nH]3)CC2)ccc2c1CCCC2 | 1160 nM
57 | COc1cccc2cc(C(=O)N[C@@H](CC(C)C)C(=O)NC(/C=N/NC(=O)c3ccccc3)CCc3ccccc3)oc12 (some centres undefined) | 580 nM
58 | O=C1Nc2cccc3c2C1(CCCCCN1CC=C(c2c[nH]c4ccccc24)CC1)CCC3 (centres undefined) | 740 nM
59 | CCN(CCCN1CCCCC1)c1cc(C)nc(Nc2ccc(Oc3ccccc3)cc2)n1 | 300 nM
60 | NCC1CCCN1Cc1ccc(-c2ccc(-c3nc4ccccc4[nH]3)s2)cc1 (centres undefined) | 930 nM
61 | CC(=O)c1cccc2cc(C(=O)NC3CCC(CCN4CCc5ccc(C#N)cc5C4)CC3)[nH]c12 (centres undefined) | 790 nM
62 | COc1ccc2nccc([C@@H](O)CN3CCC(NC(=O)/C=C/c4cc(F)cc(Br)c4)CC3)c2c1 | 170 nM
63 | COc1cc2c(cc1OC)CN(CCc1ccc(NC(=O)c3cc4cc(OC(F)(F)F)ccc4[nH]3)cc1)CC2 | 530 nM
64 | COc1ccc2nccc(N3CCC(SCCNS(=O)(=O)c4ccc5c(c4)OCCO5)C3)c2n1 (centres undefined) | 980 nM
65 | COc1ccc(CNC2CCN(C)CC2)cc1-c1ccc(S(=O)(=O)NC2CCC2)cc1 | 880 nM
66 | COc1cccc(C=CC(=O)NC2CCC(CN3CCC(c4c[nH]c5ccccc45)CC3)CC2)c1OC (centres undefined) | 740 nM
67 | O=c1[nH]ccc2nc(N[C@@H]3CCNC3)nc(Nc3ccc4c(c3)S(=O)(=O)CC4)c12 | 380 nM
68 | COc1ccc(-c2cccc(NC(=O)c3cccc(C#N)c3)c2)cc1CN(C)CCN(C)C | 310 nM
69 | O=C(N[C@@H](CC1CCCCC1)C(=O)NC1CCCc2ccccc21)c1ccc(O)c(-c2cccc([N+](=O)[O-])c2)c1 (some centres undefined) | 610 nM
70 | Cc1c(-c2ccc3c(c2)C(NCCCN2CCCCC2)CC3)cnc(N)c1C (centres undefined) | 1110 nM
71 | Nc1nc(N)c2c(ccc3c2ccn3CCCC(F)(F)F)n1 | 100 nM
72 | CCN(CC)S(=O)(=O)c1ccc(Cl)c(C(=O)Nc2ccc3nc(C)sc3c2)c1 | 800 nM
73 | O=C(c1ccc([N+](=O)[O-])o1)N1CCC(Cc2ccc(C(F)(F)F)cc2)CC1 | 170 nM
74 | CN1CCC(NCc2ccc(-c3cccc(S(=O)(=O)NCC4CCCO4)c3)cc2)CC1 (centres undefined) | 940 nM
75 | CCOc1cc2ncnc(Nc3ccc(OCc4c(Cl)cccc4Cl)c(OC)c3)c2cc1OCC | 1050 nM

Row | SMILES | IC50
76 | O=C(NCCN1Cc2ccccc2C1=O)c1ccc(Oc2ccc(C(=O)NCCN3Cc4ccccc4C3=O)cc2)cc1 | 360 nM
77 | Fc1ccc2[nH]c3c(NCCN4CCCCC4)ncnc3c2c1 | 830 nM
78 | COc1cc(Br)c(S(=O)(=O)n2cc(CN3CCC(N)CC3)c3cc(Cl)ccc32)cc1OC | 990 nM
79 | O=c1ccc2ccc(O)c(O)c2o1 | 30 nM
80 | Cc1ccc2c(-c3ccc([N+](=O)[O-])o3)cc(C)nc2c1 | 40 nM
81 | CN1CCC(C(=O)N(Cc2ccc(-c3ccc(CNCCc4ccccc4)cn3)cc2)Cc2cccc(F)c2)CC1 | 940 nM
82 | O=C(Nc1ccc2c(c1)OCO2)NC1CCN(c2ccnc(NCc3ccc(F)cc3)n2)CC1 | 940 nM
83 | Cc1cccc2[nH]c(-c3cccc(-c4cccc(NC(=O)c5cccnc5Cl)c4)c3)nc12 | 710 nM
84 | CCOc1cc(NC(=O)Nc2ccnc3ccccc23)cc(OC)c1 | 870 nM
85 | COc1cccc(Nc2nccc(NCC(O)c3ccc(C(F)(F)F)cc3)n2)c1 (centres undefined) | 660 nM
86 | CC(C)C[C@H](NC(=O)c1ccc(OCCN2CCOCC2)cc1)C(=O)NC(/C=N/N1CCCC1=O)C(C)C (some centres undefined) | 250 nM
87 | Oc1ccc(CCNc2nc(N/N=C/c3ccc(Cl)cc3)nc(N3CCNCC3)n2)cc1 | 580 nM
88 | C(=Cc1nc2ccccc2s1)c1ccc2c(c1)OCCO2 | 390 nM
89 | O=C(Nc1cccc(CN2CCCN(Cc3ccc(O)cc3)CC2)c1)c1ccc2ccccc2n1 | 940 nM
90 | O=C(/C=C/c1ccc(Cl)cc1Cl)NCCCCCN1CCC(c2c[nH]c3ccccc23)CC1 | 940 nM
91 | CCc1sc(N2CCN(C)CC2)nc1C(=O)Nc1ccc(F)cc1C(F)(F)F | 180 nM
92 | CC[C@H]1CN2CC[C@@H]1C[C@H]2[C@H](O)c1ccnc2ccc(Cl)cc12 | 120 nM
93 | COC(=O)c1noc(C)c1I | 800 nM
94 | CCc1ccc(CN2CCC(CN(C(=O)c3ccccc3)c3ccc(Cl)cc3)CC2)cc1 | 990 nM
95 | O=C(C=Cc1ccc(Cl)c(Cl)c1)NCCCCCN1CCC(CCCNC(=O)c2sc3ccccc3c2Cl)CC1 | 400 nM
96 | O=C1CCCC1Sc1nc2ccccc2c(=O)n1-c1ccc(Cl)c(Cl)c1 (centres undefined) | 730 nM
97 | N=C(N)c1ccc(OCc2cccc(COc3ccc(C(=N)N)cc3I)c2)c(I)c1 | 340 nM
98 | O=C(NCCCN1CCOCC1)c1cccc(Nc2nccc(Nc3ccc(Oc4ccccc4)cc3)n2)c1 | 770 nM
99 | O=C(Nc1ccc(CCNCCCc2ccccc2)cc1)Nc1ccc(Cl)c(Cl)c1 | 270 nM
